± gives the expanded uncertainty stated by the source.
Assays:
[1] = 101 kPa, Liquid; for speed of sound: Linear variable-path acoustic interferometer; for mass density: Vibrating tube method
[2] = xn = mol fraction of the nth substance listed; settings: 101 kPa, Liquid, x2 = 0; for speed of sound: Linear variable-path acoustic interferometer; for mass density: Vibrating tube method

| Structure (SMILES) | speed of sound ([1]; 293.15 K) [m/s] | mass density ([1]; 293.15 K) [kg/m3] | speed of sound ([1]; 298.15 K) [m/s] | mass density ([1]; 298.15 K) [kg/m3] | speed of sound ([1]; 303.15 K) [m/s] | mass density ([1]; 303.15 K) [kg/m3] | speed of sound ([1]; 308.15 K) [m/s] | mass density ([1]; 308.15 K) [kg/m3] | speed of sound ([1]; 313.15 K) [m/s] | mass density ([1]; 313.15 K) [kg/m3] | speed of sound ([1]; 318.15 K) [m/s] | mass density ([1]; 318.15 K) [kg/m3] | speed of sound ([1]; 323.15 K) [m/s] | mass density ([1]; 323.15 K) [kg/m3] | speed of sound ([2]; 293.15 K) [m/s] | mass density ([2]; 293.15 K) [kg/m3] | speed of sound ([2]; 298.15 K) [m/s] | mass density ([2]; 298.15 K) [kg/m3] | speed of sound ([2]; 303.15 K) [m/s] | mass density ([2]; 303.15 K) [kg/m3] | also measured |
| --- | --- | --- | --- | --- | --- | --- | --- | --- | --- | --- | --- | --- | --- | --- | --- | --- | --- | --- | --- | --- | --- |
| c1ccccc1 [benzene] | 1322.7 ± 1.4 | 878.95 ± 0.08 | 1299.3 ± 1.4 | 873.61 ± 0.08 | 1276 ± 1.4 | 868.25 ± 0.08 | 1252.8 ± 1.4 | 862.88 ± 0.09 | 1229.8 ± 1.3 | 857.48 ± 0.09 | 1207 ± 1.3 | 852.08 ± 0.09 | 1184.5 ± 1.3 | 846.65 ± 0.09 |  |  |  |  |  |  |  |
| c1ccccc1 [benzene] + NC1CCCCC1 |  |  |  |  |  |  |  |  |  |  |  |  |  |  | 1322.7 ± 1.4 | 878.95 ± 0.08 | 1299.3 ± 1.4 | 873.61 ± 0.08 | 1276 ± 1.4 | 868.25 ± 0.08 | speed of sound ([2]; 308.15 K): 1252.8 ± 1.4 m/s; mass density ([2]; 308.15 K): 862.88 ± 0.09 kg/m3; speed of sound ([2]; 313.15 K): 1229.8 ± 1.3 m/s; mass density ([2]; 313.15 K): 857.48 ± 0.09 kg/m3; speed of sound ([2]; 318.15 K): 1207 ± 1.3 m/s; mass density ([2]; 318.15 K): 852.08 ± 0.09 kg/m3; speed of sound ([2]; 323.15 K): 1184.5 ± 1.3 m/s; mass density ([2]; 323.15 K): 846.65 ± 0.09 kg/m3 |
| C1CCCCC1 [cyclohexane] | 1278.6 ± 1.4 | 778.55 ± 0.12 | 1253.9 ± 1.4 | 773.84 ± 0.12 | 1229.3 ± 1.3 | 769.11 ± 0.12 | 1205.1 ± 1.3 | 764.35 ± 0.12 | 1181 ± 1.3 | 759.56 ± 0.13 | 1157.3 ± 1.3 | 754.74 ± 0.13 | 1133.7 ± 1.3 | 749.89 ± 0.13 |  |  |  |  |  |  |  |
| C1CCCCC1 [cyclohexane] + NC1CCCCC1 |  |  |  |  |  |  |  |  |  |  |  |  |  |  | 1278.6 ± 1.4 | 778.55 ± 0.12 | 1253.9 ± 1.4 | 773.84 ± 0.12 | 1229.3 ± 1.3 | 769.11 ± 0.12 | speed of sound ([2]; 308.15 K): 1205.1 ± 1.3 m/s; mass density ([2]; 308.15 K): 764.35 ± 0.12 kg/m3; speed of sound ([2]; 313.15 K): 1181 ± 1.3 m/s; mass density ([2]; 313.15 K): 759.56 ± 0.13 kg/m3; speed of sound ([2]; 318.15 K): 1157.3 ± 1.3 m/s; mass density ([2]; 318.15 K): 754.74 ± 0.13 kg/m3; speed of sound ([2]; 323.15 K): 1133.7 ± 1.3 m/s; mass density ([2]; 323.15 K): 749.89 ± 0.13 kg/m3 |
| NC1CCCCC1 [cyclohexylamine] | 1430.5 ± 1.6 | 867.39 ± 0.12 | 1408.8 ± 1.6 | 862.85 ± 0.12 | 1387.3 ± 1.5 | 858.31 ± 0.12 | 1366 ± 1.5 | 853.76 ± 0.12 | 1344.5 ± 1.5 | 849.23 ± 0.13 | 1323.1 ± 1.5 | 844.68 ± 0.13 | 1301.8 ± 1.5 | 840.14 ± 0.13 |  |  |  |  |  |  |  |

From the NIST ThermoML archive (doi:10.1016/j.tca.2012.08.011)
